In US8148391B2 (Cephalon, Inc., priority 2006, dated 2012):
Where two headings read alike, the source gives them in different places. Each block holds one molecule with its values, some of them ahead of it.

Columns and labels:
[1] = target: T1, baculovirus-expressed ALK (Homo sapiens, UniProt Q9UM73); assay: ALK Kinase Assay (ELISA-type, time-resolved fluorescence); format: biochemical
T1 construct: host or cells: baculovirus expression system
How it was run: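 Wells were coated with phospholipase C-γ at 10 μg/mL in Tris-buffered saline. Adding 30 ng/ml enzyme started the reaction, which ran at 37° C for 15 minutes before Eu-N1 PT66 antibody detection. Percent inhibition versus log10 concentration gave IC50 by variable-slope fit.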

[2] = target: T2, c-Met (cytoplasmic domain) (Homo sapiens, UniProt P08581); assay: c-Met Kinase Assay (same methods as for ALK, with modifications); format: biochemical
T2 construct: 10 ng/mL c-Met (cytoplasmic domain, Invitrogen Corporation #PV3143); purchased Invitrogen Corporation PV3143
T2 sequence (P08581 956-1390 limits assumed): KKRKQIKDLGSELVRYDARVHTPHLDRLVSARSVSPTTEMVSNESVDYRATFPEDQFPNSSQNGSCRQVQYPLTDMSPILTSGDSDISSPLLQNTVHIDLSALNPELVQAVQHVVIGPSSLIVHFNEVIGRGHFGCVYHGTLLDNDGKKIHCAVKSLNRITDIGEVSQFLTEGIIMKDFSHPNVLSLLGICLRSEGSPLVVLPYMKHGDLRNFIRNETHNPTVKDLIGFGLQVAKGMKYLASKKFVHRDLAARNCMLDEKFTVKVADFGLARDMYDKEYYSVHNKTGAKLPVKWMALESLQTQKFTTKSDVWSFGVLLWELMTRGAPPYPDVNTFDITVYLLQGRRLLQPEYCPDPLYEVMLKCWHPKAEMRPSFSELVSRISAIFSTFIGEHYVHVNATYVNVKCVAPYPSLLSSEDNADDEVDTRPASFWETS
How it was run: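 Steps: coat wells with PLC-γ (10 μg/mL, Tris-buffered saline); add 10 ng/mL c-Met cytoplasmic domain to initiate; incubate 15 min, 37° C; detect phosphoproduct via Eu-N1 PT66 antibody.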

[3] = ALK kinase inhibition, 1 μM ATP, read-out: ALK Activity
[4] = c-Met kinase inhibition, 1 μM ATP, read-out: cMet Activity
[5] = 1 μM ATP (Km level), 30 ng/ml ALK, 37° C., 15 minutes, read-out: ALK Activity (ALK kinase inhibition, IC50 class)
[6] = 1 μM ATP (Km level), 10 ng/mL c-Met, read-out: cMet Activity (c-Met kinase inhibition, IC50 class)
[7] = ALK kinase inhibition, 1 μM ATP (Km level), read-out: ALK Activity
[8] = c-Met kinase inhibition, 1 μM ATP (Km level), read-out: cMet Activity
[9] = 1 μM ATP (Km level), read-out: ALK Activity (ALK Kinase Inhibition, IC50)
[10] = 1 μM ATP (Km level), read-out: cMet Activity (c-Met Kinase Inhibition, IC50)

T1 sequence (Q9UM73 19-1620): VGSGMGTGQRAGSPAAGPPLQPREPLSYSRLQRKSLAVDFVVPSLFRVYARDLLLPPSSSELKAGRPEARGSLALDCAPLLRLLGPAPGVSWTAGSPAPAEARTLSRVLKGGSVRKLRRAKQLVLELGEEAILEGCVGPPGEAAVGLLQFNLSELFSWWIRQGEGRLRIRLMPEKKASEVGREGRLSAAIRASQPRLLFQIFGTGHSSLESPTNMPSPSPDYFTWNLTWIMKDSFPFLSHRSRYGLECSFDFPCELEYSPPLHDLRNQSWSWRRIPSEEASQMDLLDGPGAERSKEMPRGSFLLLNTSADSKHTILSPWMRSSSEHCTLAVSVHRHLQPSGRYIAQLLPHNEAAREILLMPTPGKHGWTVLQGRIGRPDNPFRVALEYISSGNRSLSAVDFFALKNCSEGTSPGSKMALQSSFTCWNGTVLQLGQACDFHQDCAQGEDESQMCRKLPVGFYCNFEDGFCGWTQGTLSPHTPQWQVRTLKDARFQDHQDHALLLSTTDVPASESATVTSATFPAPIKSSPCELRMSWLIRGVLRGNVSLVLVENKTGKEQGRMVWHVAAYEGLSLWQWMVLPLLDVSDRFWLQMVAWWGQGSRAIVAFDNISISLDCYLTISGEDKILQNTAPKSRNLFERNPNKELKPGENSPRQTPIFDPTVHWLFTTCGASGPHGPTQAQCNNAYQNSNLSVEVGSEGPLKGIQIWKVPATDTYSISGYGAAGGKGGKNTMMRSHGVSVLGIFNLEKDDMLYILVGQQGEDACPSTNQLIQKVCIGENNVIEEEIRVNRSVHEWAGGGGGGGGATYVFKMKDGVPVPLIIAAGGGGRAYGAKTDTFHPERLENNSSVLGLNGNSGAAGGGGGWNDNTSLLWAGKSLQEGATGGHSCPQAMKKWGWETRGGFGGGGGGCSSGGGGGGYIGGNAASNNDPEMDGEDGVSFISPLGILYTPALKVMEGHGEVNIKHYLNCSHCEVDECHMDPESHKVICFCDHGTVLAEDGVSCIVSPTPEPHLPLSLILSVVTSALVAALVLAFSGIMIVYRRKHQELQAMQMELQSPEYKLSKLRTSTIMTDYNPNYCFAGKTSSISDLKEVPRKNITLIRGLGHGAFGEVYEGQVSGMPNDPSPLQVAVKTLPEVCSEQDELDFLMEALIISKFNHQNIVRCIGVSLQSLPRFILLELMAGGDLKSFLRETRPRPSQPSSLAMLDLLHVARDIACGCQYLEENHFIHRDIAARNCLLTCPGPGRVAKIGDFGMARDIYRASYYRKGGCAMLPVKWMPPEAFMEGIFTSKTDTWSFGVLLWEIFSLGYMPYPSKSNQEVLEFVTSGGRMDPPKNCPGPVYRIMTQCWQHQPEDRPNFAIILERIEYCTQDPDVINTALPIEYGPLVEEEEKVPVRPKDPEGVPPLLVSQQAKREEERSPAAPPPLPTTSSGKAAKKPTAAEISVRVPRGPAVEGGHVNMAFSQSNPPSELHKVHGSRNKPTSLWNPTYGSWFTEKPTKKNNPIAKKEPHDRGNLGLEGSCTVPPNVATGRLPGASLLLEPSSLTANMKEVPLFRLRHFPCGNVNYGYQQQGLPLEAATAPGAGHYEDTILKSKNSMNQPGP

IC50 [1, 3]: < 0.1 µM | IC50 [2, 4]: 0.1 to 1 µM
Structure (SMILES): CNC(=O)c1ccccc1Nc1nc(Nc2ccc3c(c2)N(CCOC)C(=O)CCC3(C)C)ncc1Cl [Example 1585, 2-{5-Chloro-2-[1-(2-methoxy-ethyl)-5,5-dimethyl-2-oxo-2,3,4,5-tetrahydro-1H-benzo[b]azepin-8-ylamino]-pyrimidin-4-ylamino}-N-methyl-benzamide]

IC50 [1, 5]: 0.1 to 1 µM | IC50 [2, 6]: 1 to 10 µM
Structure (SMILES): COCCN1CCc2ccc(Nc3ncc(Cl)c(Nc4ccccc4C(=O)NCCCCN(C)C)n3)cc2CC1 [Example 1400, {5-Chloro-2-[3-(2-methoxy-ethyl)-2,3,4,5-tetrahydro-1H-benzo[d]azepin-7-ylamino]-pyrimidin-4-ylamino}-N-(4-dimethylamino-butyl)-benzamide]

IC50 [1, 7]: < 0.1 µM | IC50 [2, 8]: 0.1 to 1 µM
Structure (SMILES): CCN1CCc2ccc(Nc3ncc(Cl)c(Nc4ccccc4-c4nccn4C)n3)cc2CC1 [Example 216, 5-Chloro-N*2*-(3-ethyl-2,3,4,5-tetrahydro-1H-benzo[d]azepin-7-yl)-N*4*-[2-(1-methyl-1H-imidazol-2-yl)-phenyl]-pyrimidine-2,4-diamine]

IC50 [1, 3]: 0.1 to 1 µM | IC50 [2, 4]: < 0.1 µM
Structure (SMILES): CCN1C(=O)C(NC(=O)CN(C)C)CCc2ccc(Nc3ncc(Cl)c(Nc4c(F)cccc4C(=O)NC)n3)cc21 (stereo not drawn) [Example 1496, 2-{5-Chloro-2-[3-(2-dimethylamino-acetylamino)-1-ethyl-2-oxo-2,3,4,5-tetrahydro-1H-benzo[b]azepin-8-ylamino]-pyrimidin-4-ylamino}-3-fluoro-N-methyl-benzamide]

IC50 [1, 9]: < 0.1 µM | IC50 [2, 10]: 1 to 10 µM
Structure (SMILES): COc1ccc(Nc2nc(Nc3ccc4c(c3)CCC(N3CCOCC3)CC4)ncc2Cl)c2c1CN(C)C2=O (stereo not drawn) [Example 939, 7-[5-Chloro-2-(7-morpholin-4-yl-6,7,8,9-tetrahydro-5H-benzocyclohepten-2-ylamino)-pyrimidin-4-ylamino]-4-methoxy-2-methyl-2,3-dihydro-isoindol-1-one]

IC50 [1, 3]: < 0.1 µM | IC50 [2, 4]: > 10 µM
Structure (SMILES): COc1cc2c(cc1Nc1ncc(Cl)c(N[C@@H]3[C@H](C(N)=O)[C@H]4C=C[C@@H]3C4)n1)CCOC(=O)N2C [Example 1509, (1R,2R,3S,4S)-3-[5-Chloro-2-(3-methoxy-5-methyl-6-oxo-5,6,8,9-tetrahydro-7-oxa-5-aza-benzocyclohepten-2-ylamino)-pyrimidin-4-ylamino]-bicyclo[2.2.1]hept-5-ene-2-carboxylic acid amide]

IC50 [1, 7]: < 0.1 µM | IC50 [2, 8]: < 0.1 µM
Structure (SMILES): CNC(=O)c1ccccc1Nc1nc(Nc2ccc3c(c2)CCCNC3=O)ncc1Cl [Example 11, 2-[5-Chloro-2-(1-oxo-2,3,4,5-tetrahydro-1H-benzo[c]azepin-7-ylamino)-pyrimidin-4-ylamino]-N-methyl-benzamide]

IC50 [1, 5]: < 0.1 µM | IC50 [2, 6]: > 10 µM
Structure (SMILES): COc1cc2c(cc1Nc1ncc(Cl)c(Nc3ccccc3OC)n1)CCN(CCS(C)(=O)=O)CC2 [Example 1132, 5-Chloro-N*2*-[3-(2-methanesulfonyl-ethyl)-8-methoxy-2,3,4,5-tetrahydro-1H-benzo[d]azepin-7-yl]-N*4*-(2-methoxy-phenyl)-pyrimidine-2,4-diamine]

IC50 [1, 3]: 0.1 to 1 µM | IC50 [2, 4]: > 10 µM
Structure (SMILES): CCN1CCCC(C)(C)c2ccc(Nc3ncc(Cl)c(Nc4ccc(N5CCOCC5)cc4OC)n3)cc21 [Example 1635, 5-Chloro-N*2*-(1-ethyl-5,5-dimethyl-2,3,4,5-tetrahydro-1H-benzo[b]azepin-8-yl)-N*4*-(2-methoxy-4-morpholin-4-yl-phenyl)-pyrimidine-2,4-diamine]

IC50 [1, 3]: 0.1 to 1 µM | IC50 [2, 4]: 0.1 to 1 µM
Structure (SMILES): Cc1cnc(-c2cccc(F)c2Nc2nc(Nc3ccc4c(c3)CCOC(=O)N4C)ncc2Cl)o1 [Example 1789, 2-{5-Chloro-4-[2-fluoro-6-(5-methyl-oxazol-2-yl)-phenylamino]-pyrimidin-2-ylamino}-5-methyl-8,9-dihydro-5H-7-oxa-5-aza-benzocyclohepten-6-one]

IC50 [1, 9]: < 0.1 µM | IC50 [2, 10]: > 10 µM
Structure (SMILES): COc1ccc(Nc2nc(Nc3cc4c(cc3OC)CCN(CC(=O)N(C)C)CC4)ncc2Cl)c(NS(C)(=O)=O)c1 [Example 821, 2-{7-[5-Chloro-4-(2-methanesulfonylamino-4-methoxy-phenylamino)-pyrimidin-2-ylamino]-8-methoxy-1,2,4,5-tetrahydro-benzo[d]azepin-3-yl}-N,N-dimethyl-acetamide]

IC50 [1, 3]: < 0.1 µM | IC50 [2, 4]: 0.1 to 1 µM
Structure (SMILES): COCCN1C(=O)CCC(C)(C)c2ccc(Nc3ncc(Cl)c(Nc4ccccc4OCC#N)n3)cc21 [Example 1582, (2-{5-Chloro-2-[1-(2-methoxy-ethyl)-5,5-dimethyl-2-oxo-2,3,4,5-tetrahydro-1H-benzo[b]azepin-8-ylamino]-pyrimidin-4-ylamino}-phenoxy)-acetonitrile]

IC50 [1, 5]: < 0.1 µM | IC50 [2, 6]: < 0.1 µM
Structure (SMILES): CCNC(=O)c1cccc(F)c1Nc1nc(Nc2ccc3c(c2)C(C)(C)CCC(=O)N3C)ncc1Cl [Example 1366, 2-[5-Chloro-2-(1,5,5-trimethyl-2-oxo-2,3,4,5-tetrahydro-1H-benzo[b]azepin-7-ylamino)-pyrimidin-4-ylamino]-N-ethyl-3-fluoro-benzamide]

IC50 [1, 3]: 1 to 10 µM | IC50 [2, 4]: > 10 µM
Structure (SMILES): COc1ccc2c(c1Nc1ncc(Cl)c(N[C@@H]3CCCC[C@H]3NS(C)(=O)=O)n1)CN(Cc1ccccc1)CC(=O)N2 [Example 1654, N-{(1R,2R)-2-[2-(4-Benzyl-7-methoxy-2-oxo-2,3,4,5-tetrahydro-1H-benzo[e][1,4]diazepin-6-ylamino)-5-chloro-pyrimidin-4-ylamino]-cyclohexyl}-methanesulfonamide]

IC50 [1, 9]: < 0.1 µM | IC50 [2, 10]: < 0.1 µM
Structure (SMILES): CNC(=O)c1ccccc1Nc1nc(Nc2ccc3c(c2)CCCC(=O)N3CCOC)ncc1C(F)(F)F [Example 921, 2-{2-[1-(2-Methoxyethyl)-2-oxo-2,3,4,5-tetrahydro-1H-benzo[b]azepin-7-ylamino]-5-trifluoromethylpyrimidin-4-ylamino}-N-methylbenzamide]

IC50 [1, 5]: < 0.1 µM | IC50 [2, 6]: > 10 µM
Structure (SMILES): CNC(=O)CN1CCc2cc(Nc3ncc(Cl)c(N[C@@H]4CCCC[C@H]4NS(C)(=O)=O)n3)c(OC)cc2CC1 [Example 1112, 2-{7-[5-Chloro-4-((1R,2R)-2-methanesulfonylamino-cyclohexylamino)-pyrimidin-2-ylamino]-8-methoxy-1,2,4,5-tetrahydro-benzo[d]azepin-3-yl}-N-methyl-acetamide]

IC50 [1, 7]: < 0.1 µM | IC50 [2, 8]: 1 to 10 µM
Structure (SMILES): CCS(=O)(=O)N[C@@H]1CCCC[C@H]1Nc1nc(Nc2ccc3c(c2)CCN(CCOC)CC3)ncc1Cl [Example 453, Ethanesulfonic acid ((1R,2R)-2-{5-chloro-2-[3-(2-methoxy-ethyl)-2,3,4,5-tetrahydro-1H-benzo[d]azepin-7-ylamino]-pyrimidin-4-ylamino}-cyclohexyl)-amide]

IC50 [1, 9]: < 0.1 µM | IC50 [2, 10]: > 10 µM
Structure (SMILES): COc1cc2c(cc1Nc1ncc(Cl)c(Nc3ccc(Cl)cc3S(=O)(=O)N(C)C)n1)CCN(CC(=O)N(C)C)CC2 [Example 832, 2-{7-[5-Chloro-4-(4-chloro-2-dimethylsulfamoyl-phenylamino)-pyrimidin-2-ylamino]-8-methoxy-1,2,4,5-tetrahydro-benzo[d]azepin-3-yl}-N,N-dimethyl-acetamide]

IC50 [1, 9]: < 0.1 µM | IC50 [2, 10]: 0.1 to 1 µM
Structure (SMILES): NC(=O)[C@@H]1[C@H](Nc2nc(Nc3ccc4c(c3)CCC(N3CCOCC3)CC4)ncc2Cl)[C@H]2C=C[C@@H]1C2 (single isomer, unassigned) [Example 681]

IC50 [1, 5]: 0.1 to 1 µM | IC50 [2, 6]: 1 to 10 µM
Structure (SMILES): CC(C)S(=O)(=O)c1cccc(F)c1Nc1nc(Nc2ccc3c(c2)NC(=O)CCC3(C)C)ncc1Cl [Example 1251, 8-{5-Chloro-4-[2-fluoro-6-(propane-2-sulfonyl)-phenylamino]-2-ylamino}-5,5-dimethyl-1,3,4,5-tetrahydro-1-benzazepin-2-one]

IC50 [1, 3]: 1 to 10 µM | IC50 [2, 4]: < 0.1 µM
Structure (SMILES): CNC(=O)c1cc(F)cc(Cl)c1Nc1nc(Nc2ccc3c(c2)CCOC(=O)N3C)ncc1Cl [Example 1758, 3-Chloro-2-[5-chloro-2-(5-methyl-6-oxo-5,6,8,9-tetrahydro-7-oxa-5-aza-benzocyclohepten-2-ylamino)-pyrimidin-4-ylamino]-5-fluoro-N-methyl-benzamide]

IC50 [1, 7]: < 0.1 µM | IC50 [2, 8]: < 0.1 µM
Structure (SMILES): CNC(=O)c1ccccc1Nc1nc(Nc2ccc3c(c2)C(=O)NCCO3)ncc1Cl [Example 1880, 2-[5-Chloro-2-(5-oxo-2,3,4,5-tetrahydro-benzo[f][1,4]oxazepin-7-ylamino)-pyrimidin-4-ylamino]-N-methyl-benzamide]

IC50 [1, 7]: < 0.1 µM | IC50 [2, 8]: < 0.1 µM
Structure (SMILES): CNC(=O)c1cccc(F)c1Nc1nc(Nc2ccc3c(c2)CCCC(=O)N3CCOC)ncc1Cl [Example 356, 2-{5-Chloro-2-[1-(2-methoxy-ethyl)-2-oxo-2,3,4,5-tetrahydro-1H-benzo[b]azepin-7-ylamino]-pyrimidin-4-ylamino}-3-fluoro-N-methyl-benzamide]

IC50 [1, 3]: 1 to 10 µM | IC50 [2, 4]: 1 to 10 µM
Structure (SMILES): CC(C)[C@@H](Nc1nc(Nc2ccc3c(c2)CCOC(=O)N3C)ncc1Cl)C(N)=O [Example 1763, (R)-2-[5-Chloro-2-(5-methyl-6-oxo-5,6,8,9-tetrahydro-7-oxa-5-aza-benzocyclohepten-2-ylamino)-pyrimidin-4-ylamino]-3-methyl-butyramide]
